Measurements reported in ChEMBL document CHEMBL4371034, “Design, synthesis, biological evaluation, structure-activity relationship, and toxicity of clinafloxacin-azole conjugates as novel antitubercular agents” (Bioorg Med Chem, 2019).
Values after ≈ are worked out from the molar mass of the structure shown. Active and inactive are the calls of the source. The rule behind the calls is not given here.

What was measured:
[1] = target: Voltage-gated inwardly rectifying potassium channel KCNH2 (Homo sapiens, UniProt Q12809); assay: Inhibition of human ERG
Sequence of Voltage-gated inwardly rectifying potassium channel KCNH2 (Q12809 whole entry, the tested form may be a part): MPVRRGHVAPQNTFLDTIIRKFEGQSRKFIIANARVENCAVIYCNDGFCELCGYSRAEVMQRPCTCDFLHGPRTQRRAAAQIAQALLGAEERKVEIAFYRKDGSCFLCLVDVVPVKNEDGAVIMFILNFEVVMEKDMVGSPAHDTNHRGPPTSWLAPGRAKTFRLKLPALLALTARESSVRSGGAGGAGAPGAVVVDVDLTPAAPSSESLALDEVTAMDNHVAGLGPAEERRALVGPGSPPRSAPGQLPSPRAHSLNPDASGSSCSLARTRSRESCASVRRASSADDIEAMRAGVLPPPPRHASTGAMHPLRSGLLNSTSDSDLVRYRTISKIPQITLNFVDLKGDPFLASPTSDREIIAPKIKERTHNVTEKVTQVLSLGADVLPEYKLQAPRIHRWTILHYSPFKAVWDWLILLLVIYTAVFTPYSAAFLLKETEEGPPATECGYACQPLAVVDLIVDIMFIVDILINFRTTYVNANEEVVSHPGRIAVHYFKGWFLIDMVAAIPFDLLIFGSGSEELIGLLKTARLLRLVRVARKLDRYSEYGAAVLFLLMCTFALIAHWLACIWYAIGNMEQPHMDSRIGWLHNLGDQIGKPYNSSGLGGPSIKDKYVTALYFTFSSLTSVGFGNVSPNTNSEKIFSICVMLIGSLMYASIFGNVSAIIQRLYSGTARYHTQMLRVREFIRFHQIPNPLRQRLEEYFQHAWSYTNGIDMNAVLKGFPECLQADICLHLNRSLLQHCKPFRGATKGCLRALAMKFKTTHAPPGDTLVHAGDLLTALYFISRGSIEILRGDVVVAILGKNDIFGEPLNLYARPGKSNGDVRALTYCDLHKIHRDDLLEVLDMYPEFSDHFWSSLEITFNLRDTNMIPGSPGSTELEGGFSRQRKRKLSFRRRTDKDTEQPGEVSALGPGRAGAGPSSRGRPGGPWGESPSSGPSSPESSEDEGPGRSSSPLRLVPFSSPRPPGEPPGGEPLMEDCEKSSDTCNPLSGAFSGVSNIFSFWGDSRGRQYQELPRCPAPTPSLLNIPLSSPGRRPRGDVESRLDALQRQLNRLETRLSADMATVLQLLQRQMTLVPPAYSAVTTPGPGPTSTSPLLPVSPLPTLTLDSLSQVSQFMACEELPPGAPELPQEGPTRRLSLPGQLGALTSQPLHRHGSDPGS

Salmonella [2] = assay: Antibacterial activity against Salmonella S1.1152 assessed as diameter of zone of inhibition at 80 ug/ml after 18 hrs by agar diffusion method; type: functional; conditions: for zone of inhibition at 80 µg/mL: S1.1152, 18 h, read-out: DIZ
Staphylococcus aureus [3] = assay: Antibacterial activity against Staphylococcus aureus ATCC 29213 assessed as diameter of zone of inhibition at 80 ug/ml after 18 hrs by agar diffusion method; type: functional; conditions: for zone of inhibition at 80 µg/mL: ATCC 29213, 18 h, read-out: DIZ
[4] = Cytotoxicity against human HeLa cells assessed as growth inhibition at 20 uM by Celltiter-Glo luminescence assay; type: cell-based; conditions: read-out: GI
[5] = tested on: Mycobacterium tuberculosis; assay: Antitubercular activity against Mycobacterium tuberculosis H37Rv after 6 days by […]; type: functional; conditions: 144 h
Escherichia coli [6] = assay: Antibacterial activity against duck Escherichia coli clinical isolates assessed as diameter of zone of inhibition at 80 ug/ml after 18 hrs by agar diffusion method; type: functional; conditions: for zone of inhibition at 80 µg/mL: read-out: DIZ
[7] = tested on: Mycobacterium tuberculosis; assay: Antitubercular activity against Mycobacterium tuberculosis H37Rv assessed as growth inhibition at 20 uM after 6 days by […]; type: functional; conditions: 144 h, read-out: GI
HeLa = assay: Cytotoxicity against human HeLa cells by Celltiter-Glo luminescence assay; type: cell-based
Pseudomonas aeruginosa [8] = assay: Antibacterial activity against Pseudomonas aeruginosa PS1.0050 assessed as diameter of zone of inhibition at 80 ug/ml after 18 hrs by agar diffusion method; type: functional; conditions: for zone of inhibition at 80 µg/mL: PS1.0050, 18 h, read-out: DIZ
Staphylococcus aureus [9] = assay: Antibacterial activity against Staphylococcus aureus ATCC 29213 measured after 120 days of sample dissolution by serial dilution method; type: functional
Escherichia coli [10] = assay: Antibacterial activity against duck Escherichia coli clinical isolates measured after 120 days of sample dissolution by serial dilution method; type: functional
Salmonella [11] = assay: Antibacterial activity against Salmonella S1.1152 measured after 120 days of sample dissolution by serial dilution method; type: functional
Pseudomonas aeruginosa [12] = assay: Antibacterial activity against Pseudomonas aeruginosa PS1.0050 measured after 120 days of sample dissolution by serial dilution method; type: functional

Structure (SMILES): COc1ccc2[nH]c(SCC(=O)NC3CCN(c4c(F)cc5c(=O)c(C(=O)O)cn(C6CC6)c5c4Cl)C3)nc2c1 (centres undefined)
- IC50 [1]: > 1 µM

Structure (SMILES): Cc1nnn(CC(=O)NC2CCN(c3c(F)cc4c(=O)c(C(=O)O)cn(C5CC5)c4c3Cl)C2)n1 (centres undefined)
- IC50 [1]: > 1 µM

Structure (SMILES): O=C(CCn1cnc2ccccc21)NC1CCN(c2c(F)cc3c(=O)c(C(=O)O)cn(C4CC4)c3c2Cl)C1 (centres undefined)
- IC50 [1]: > 1 µM

Structure (SMILES): O=C(CCn1cccn1)NC1CCN(c2c(F)cc3c(=O)c(C(=O)O)cn(C4CC4)c3c2Cl)C1 (centres undefined)
- IC50 [1]: > 1 µM

Structure (SMILES): O=C(CCn1ccnn1)NC1CCN(c2c(F)cc3c(=O)c(C(=O)O)cn(C4CC4)c3c2Cl)C1 (centres undefined)
- IC50 [1]: > 1 µM
- diameter of the inhibition zone (DIZ) (Salmonella [2]): inactive
- zone of inhibition at 80 µg/mL (Staphylococcus aureus [3]): 7 mm
- inhibition at 20 µM [4]: -9.5%
- MIC [5]: 2.95 µM (≈ 1.44 µg/mL)
- diameter of the inhibition zone (DIZ) (Escherichia coli [6]): inactive
- inhibition of growth at 20 µM [7]: 96.9%
- IC50 (HeLa): > 20 µM
- zone of inhibition at 80 µg/mL (Pseudomonas aeruginosa [8]): 14 mm

Structure (SMILES): Cc1nccn1CCC(=O)NC1CCN(c2c(F)cc3c(=O)c(C(=O)O)cn(C4CC4)c3c2Cl)C1 (centres undefined)
- IC50 [1]: > 1 µM

Structure (SMILES): O=C(Cn1ccnn1)NC1CCN(c2c(F)cc3c(=O)c(C(=O)O)cn(C4CC4)c3c2Cl)C1 (centres undefined)
- IC50 [1]: > 1 µM
- zone of inhibition at 80 µg/mL (Salmonella [2]): 19 mm
- zone of inhibition at 80 µg/mL (Staphylococcus aureus [3]): 17 mm
- inhibition at 20 µM [4]: -10.1%
- MIC (Staphylococcus aureus [9]): 4 µg/mL (≈ 8.42 µM)
- MIC [5]: 2.28 µM (≈ 1.08 µg/mL)
- zone of inhibition at 80 µg/mL (Escherichia coli [6]): 16 mm
- MIC (Escherichia coli [10]): > 16 µg/mL
- inhibition of growth at 20 µM [7]: 98.5%
- MIC (Salmonella [11]): 16 µg/mL (≈ 33.7 µM)
- MIC (Pseudomonas aeruginosa [12]): 1 µg/mL (≈ 2.11 µM)
- zone of inhibition at 80 µg/mL (Pseudomonas aeruginosa [8]): 19 mm

Structure (SMILES): Nc1ccn(CC(=O)NC2CCN(c3c(F)cc4c(=O)c(C(=O)O)cn(C5CC5)c4c3Cl)C2)n1 (centres undefined)
- IC50 [1]: > 1 µM
- zone of inhibition at 80 µg/mL (Salmonella [2]): 23 mm
- zone of inhibition at 80 µg/mL (Staphylococcus aureus [3]): 23 mm
- inhibition at 20 µM [4]: -17.1%
- MIC (Staphylococcus aureus [9]): 16 µg/mL (≈ 32.7 µM)
- MIC [5]: 1.69 µM (≈ 0.826 µg/mL)
- zone of inhibition at 80 µg/mL (Escherichia coli [6]): 23 mm
- MIC (Escherichia coli [10]): > 16 µg/mL
- inhibition of growth at 20 µM [7]: 98.5%
- MIC (Salmonella [11]): 16 µg/mL (≈ 32.7 µM)
- MIC (Pseudomonas aeruginosa [12]): 2 µg/mL (≈ 4.09 µM)
- zone of inhibition at 80 µg/mL (Pseudomonas aeruginosa [8]): 25 mm

Structure (SMILES): Cc1nccn1CC(=O)NC1CCN(c2c(F)cc3c(=O)c(C(=O)O)cn(C4CC4)c3c2Cl)C1 (centres undefined)
- IC50 [1]: > 1 µM

Structure (SMILES): O=C(CCn1nccn1)NC1CCN(c2c(F)cc3c(=O)c(C(=O)O)cn(C4CC4)c3c2Cl)C1 (centres undefined)
- IC50 [1]: > 1 µM

Structure (SMILES): O=C(Cn1cccn1)NC1CCN(c2c(F)cc3c(=O)c(C(=O)O)cn(C4CC4)c3c2Cl)C1 (centres undefined)
- IC50 [1]: > 1 µM

Structure (SMILES): Cc1nnnn1CC(=O)NC1CCN(c2c(F)cc3c(=O)c(C(=O)O)cn(C4CC4)c3c2Cl)C1 (centres undefined)
- IC50 [1]: > 1 µM

Structure (SMILES): Cc1nnnn1CCC(=O)NC1CCN(c2c(F)cc3c(=O)c(C(=O)O)cn(C4CC4)c3c2Cl)C1 (centres undefined)
- IC50 [1]: > 1 µM

Structure (SMILES): O=C(Cn1ccnc1)NC1CCN(c2c(F)cc3c(=O)c(C(=O)O)cn(C4CC4)c3c2Cl)C1 (centres undefined)
- IC50 [1]: > 1 µM

Structure (SMILES): Cc1cn(CC(=O)NC2CCN(c3c(F)cc4c(=O)c(C(=O)O)cn(C5CC5)c4c3Cl)C2)cn1 (centres undefined)
- IC50 [1]: > 1 µM

Structure (SMILES): Cc1cc(C)n(CC(=O)NC2CCN(c3c(F)cc4c(=O)c(C(=O)O)cn(C5CC5)c4c3Cl)C2)n1 (centres undefined)
- IC50 [1]: > 1 µM

Structure (SMILES): O=C(Cn1cncn1)NC1CCN(c2c(F)cc3c(=O)c(C(=O)O)cn(C4CC4)c3c2Cl)C1 (centres undefined)
- IC50 [1]: > 1 µM

Structure (SMILES): Nc1nnn(CC(=O)NC2CCN(c3c(F)cc4c(=O)c(C(=O)O)cn(C5CC5)c4c3Cl)C2)n1 (centres undefined)
- IC50 [1]: > 1 µM

Structure (SMILES): Cc1cn(CCC(=O)NC2CCN(c3c(F)cc4c(=O)c(C(=O)O)cn(C5CC5)c4c3Cl)C2)cn1 (centres undefined)
- IC50 [1]: > 1 µM

Structure (SMILES): O=C(Cn1ncnn1)NC1CCN(c2c(F)cc3c(=O)c(C(=O)O)cn(C4CC4)c3c2Cl)C1 (centres undefined)
- IC50 [1]: > 1 µM

Structure (SMILES): O=C(Cn1nnc2ccccc21)NC1CCN(c2c(F)cc3c(=O)c(C(=O)O)cn(C4CC4)c3c2Cl)C1 (centres undefined)
- IC50 [1]: > 1 µM

Structure (SMILES): Nc1n[nH]c(SCC(=O)NC2CCN(c3c(F)cc4c(=O)c(C(=O)O)cn(C5CC5)c4c3Cl)C2)n1 (centres undefined)
- IC50 [1]: > 1 µM
- zone of inhibition at 80 µg/mL (Salmonella [2]): 16 mm
- zone of inhibition at 80 µg/mL (Staphylococcus aureus [3]): 16 mm
- inhibition at 20 µM [4]: -7.2%
- MIC (Staphylococcus aureus [9]): 16 µg/mL (≈ 30.7 µM)
- MIC [5]: 0.72 µM (≈ 0.376 µg/mL)
- zone of inhibition at 80 µg/mL (Escherichia coli [6]): 14 mm
- MIC (Escherichia coli [10]): > 16 µg/mL
- inhibition of growth at 20 µM [7]: 98.2%
- MIC (Salmonella [11]): 16 µg/mL (≈ 30.7 µM)
- IC50 (HeLa): > 20 µM
- MIC (Pseudomonas aeruginosa [12]): 8 µg/mL (≈ 15.3 µM)
- zone of inhibition at 80 µg/mL (Pseudomonas aeruginosa [8]): 16 mm

Structure (SMILES): NC1CCN(c2c(F)cc3c(=O)c(C(=O)O)cn(C4CC4)c3c2Cl)C1 (centres undefined) [CLINAFLOXACIN]
- zone of inhibition at 80 µg/mL (Salmonella [2]): 13 to 21 mm
- zone of inhibition at 80 µg/mL (Staphylococcus aureus [3]): 22 mm
- MIC (Staphylococcus aureus [9]): 1 µg/mL (≈ 2.73 µM)
- zone of inhibition at 80 µg/mL (Escherichia coli [6]): 7 to 17 mm
- MIC (Escherichia coli [10]): 2 µg/mL (≈ 5.47 µM)
- MIC (Salmonella [11]): 1 µg/mL (≈ 2.73 µM)
- MIC (Pseudomonas aeruginosa [12]): 0.125 µg/mL (≈ 0.342 µM)
- zone of inhibition at 80 µg/mL (Pseudomonas aeruginosa [8]): 22 to 23 mm

Structure (SMILES): O=C(Cn1cnnn1)NC1CCN(c2c(F)cc3c(=O)c(C(=O)O)cn(C4CC4)c3c2Cl)C1 (centres undefined)
- IC50 [1]: > 1 µM

Structure (SMILES): O=C(Cn1nccn1)NC1CCN(c2c(F)cc3c(=O)c(C(=O)O)cn(C4CC4)c3c2Cl)C1 (centres undefined)
- IC50 [1]: > 1 µM

Structure (SMILES): Nc1nnc(SCC(=O)NC2CCN(c3c(F)cc4c(=O)c(C(=O)O)cn(C5CC5)c4c3Cl)C2)s1 (centres undefined)
- IC50 [1]: > 1 µM
- zone of inhibition at 80 µg/mL (Salmonella [2]): 12 mm
- zone of inhibition at 80 µg/mL (Staphylococcus aureus [3]): 12 mm
- inhibition at 20 µM [4]: -11.2%
- MIC (Staphylococcus aureus [9]): 8 µg/mL (≈ 14.8 µM)
- MIC [5]: 0.66 µM (≈ 0.356 µg/mL)
- zone of inhibition at 80 µg/mL (Escherichia coli [6]): 12 mm
- MIC (Escherichia coli [10]): > 16 µg/mL
- inhibition of growth at 20 µM [7]: 99%
- MIC (Salmonella [11]): 16 µg/mL (≈ 29.7 µM)
- IC50 (HeLa): > 20 µM
- MIC (Pseudomonas aeruginosa [12]): 4 µg/mL (≈ 7.42 µM)
- zone of inhibition at 80 µg/mL (Pseudomonas aeruginosa [8]): 15 mm

Structure (SMILES): O=C(Cn1cnc2ccccc21)NC1CCN(c2c(F)cc3c(=O)c(C(=O)O)cn(C4CC4)c3c2Cl)C1 (centres undefined)
- IC50 [1]: > 1 µM

Structure (SMILES): O=C(CCn1ccnc1)NC1CCN(c2c(F)cc3c(=O)c(C(=O)O)cn(C4CC4)c3c2Cl)C1 (centres undefined)
- IC50 [1]: > 1 µM

Structure (SMILES): O=C(CSc1nc2ccccc2[nH]1)NC1CCN(c2c(F)cc3c(=O)c(C(=O)O)cn(C4CC4)c3c2Cl)C1 (centres undefined)
- IC50 [1]: > 1 µM

Structure (SMILES): Nc1nnn(CCC(=O)NC2CCN(c3c(F)cc4c(=O)c(C(=O)O)cn(C5CC5)c4c3Cl)C2)n1 (centres undefined)
- IC50 [1]: > 1 µM

Structure (SMILES): Cn1nnc(SCC(=O)NC2CCN(c3c(F)cc4c(=O)c(C(=O)O)cn(C5CC5)c4c3Cl)C2)n1 (centres undefined)
- IC50 [1]: > 1 µM

Structure (SMILES): Nc1nnc(SCCC(=O)NC2CCN(c3c(F)cc4c(=O)c(C(=O)O)cn(C5CC5)c4c3Cl)C2)s1 (centres undefined)
- IC50 [1]: > 1 µM
- diameter of the inhibition zone (DIZ) (Salmonella [2]): inactive
- diameter of the inhibition zone (DIZ) (Staphylococcus aureus [3]): inactive
- inhibition at 20 µM [4]: -21.2%
- MIC [5]: 3.9 µM (≈ 2.16 µg/mL)
- diameter of the inhibition zone (DIZ) (Escherichia coli [6]): inactive
- inhibition of growth at 20 µM [7]: 95.8%
- IC50 (HeLa): > 20 µM
- diameter of the inhibition zone (DIZ) (Pseudomonas aeruginosa [8]): inactive

Structure (SMILES): Cc1cc(C)n(CCC(=O)NC2CCN(c3c(F)cc4c(=O)c(C(=O)O)cn(C5CC5)c4c3Cl)C2)n1 (centres undefined)
- IC50 [1]: > 1 µM

Structure (SMILES): Cc1nnn(CCC(=O)NC2CCN(c3c(F)cc4c(=O)c(C(=O)O)cn(C5CC5)c4c3Cl)C2)n1 (centres undefined)
- IC50 [1]: > 1 µM

Structure (SMILES): O=C(CCn1cncn1)NC1CCN(c2c(F)cc3c(=O)c(C(=O)O)cn(C4CC4)c3c2Cl)C1 (centres undefined)
- IC50 [1]: > 1 µM
